Experimental data reported in patent publication US7297689B2, “Method for preparing peritoneal dialysate” (Tokai University Educational System, priority 1998, dated 2007).
“Also recorded” adds a separate entry of the source. Read-outs that look alike come from different tables or passages of the source. Each block holds one molecule with its values, some of them ahead of it.

How the values were obtained:
VEGF mRNA [1] = assay: VEGF mRNA expression in cultured rat mesothelial cells (semiquantitative RT-PCR); assay type: cell-based; conditions: 3 hours
Procedure: Peritoneum was obtained from 6-week-old male CD (SD) IGS rats (Charles-River, Kanagawa, Japan). Mesothelial cells were isolated based on the method of Hjelle et al. (Hjelle J T et al., Perit Dial Int, 9: 341-347 (1989)) and cultured in Dulbecco's modified Eagle's medium (DMEM) containing 10% fetal bovine serum. The mesothelial cells at passage 7 to 10 were cultured for 3 hours in a CO2 incubator in the presence of various concentrations of glucose degradation products (glyoxal, methylglyoxal (Sigma, St. Louis, Mo.), or 3-deoxyglucosone (kindly provided from Fuji Memorial Research Institute, Otsuka Pharmaceutical Co., Kyoto, Japan). The expression of VEGF mRNA was analyzed by semiquantitative RT-PCR. Total RNA was isolated from the mesothelial cells using Rneasy Mini Kit (Qiagen, Germany). Five micrograms of the RNA was reverse-transcribed using oligo(dT)12-18 primers (Gibco BRL, Gaithersburg, Md.) with 200 units of RNase H-free reverse transcriptase (Superscript II: Gibco BRL) and PCR amplification was performed as described previously (Miyata T et al., J Clin Invest, 93: 521-528 (1994)). The sequences of the primers used for the amplification of rat VEGF were 5′-[…]-3′ (SEQ ID NO: 1) and 5′-[…]-3′ (SEQ ID NO: 2). The amplified product was 310 bp long. The primers used for the amplification of rat glyceraldehyde-3-phosphate dehydrogenase. (G3PDH) were 5′-[…]-3′ (SEQ ID NO: 3) and 5′-[…]-3′ (SEQ ID NO: 4) and amplified a 322 bp fragment. The G3PDH served as an internal RNA control to allow comparison of RNA levels among different specimens. […] PCR products resolved by electrophoresis in 1.5% agarose gel and stained with ethidium bromide were quantified by measuring the signal intensity with a quantification program (NIH image). […] Messenger RNA was determined in triplicate and the results were averaged for each experiment. […] The results were averaged and expressed as mean±S.D. The statistical significance was evaluated by analysis of variance (ANOVA). […]

[2] = trapping of methylglyoxal by guanidine, aminoguanidine and biguanide agents; conditions: 0.1 M phosphate buffer pH 7.4, 37° C., agent 50 μl of 30 mM
Procedure: (§1) A mixture (50 μl) of glyoxal, methylglyoxal, and 3-deoxyglucosone (1 mM each) was further mixed with 400 μl of 0.1 M phosphate buffer (pH 7.4), and each (50 μl; 30 mM) of guanidine, aminoguanidine, or a biguanide agent. The resulting mixture was incubated at 37° C. Biguanide agents used were metformin, buformin, and phenformin. After the incubation, glyoxal, methylglyoxal, and 3-deoxyglucosone were converted to quinoxaline derivatives by using o-phenylenediamine, and then the respective concentrations were determined by high performance liquid chromatography.

[3] = generation of carbonyl compounds in peritoneal dialysate during heat sterilization (2,4-DNPH); conditions: acidic and neutral pH, sterilization 121° C.
Excerpt: (§2) Peritoneal dialysates contain a high concentration of glucose as an osmoregulatory agent (1.35-4.0 w/v %). Glucose is unstable to heating and undergoes degradation during heat sterilization or storage. Degradation products of glucose have been reported to include 5-hydroxymethylfurfural (5-HMF), levulinic acid, and acetaldehyde (Richard, J. U. et al., Fund. Appl. Toxic., 4: 843-853 (1984), Nilsson, C. B. et al., Perit. Dial. Int., 13: 208-213 (1993)). The inventors tested aminoguanidine for its inhibiting effect on the generation of carbonyl compounds during heat sterilization of a peritoneal dialysate, by monitoring the quantities of 5-HMF and carbonyl compounds. Since the degree of glucose degradation is affected by pH of the solution, two peritoneal dialysates of acidic pH (pH 5.3) and neutral pH (pH 7.0) were prepared to carry out the experiment. Sterilization temperature was 121° C.
Quantification of carbonyl compounds in the peritoneal dialysate was carried out in the same manner as described in Example 1 by measuring the absorbance after the reaction with 2,4-DNPH (Levine, R. L. et al., Methods Enzymol., 233: 346-357 (1994)). Sterilization temperature was 121° C.

[4] = subcutaneously administered, rat; cited from earlier work
[5] = generation of 5-HMF in peritoneal dialysate during heat sterilization (HPLC); conditions: sterilization 121° C.
Excerpt: as §2
5-HMF was assayed by high performance liquid chromatography (SHIMADZU Co.; LC-10A) (Nilsson, C. B. et al., Perit. Dial. Int., 13: 208-213 (1993)).

[6] = amount of carbonyl compounds other than glucose in peritoneal dialysate (CAPD) effluent, 2,4-DNPH assay; design: species or system human; conditions: effluent, 0, 10, 50, 250 mM, unincubated and incubated (37° C. for 15 hours)
Procedure: The peritoneal dialysate effluent was recovered from the patient and filtered with a filter with a pore size of 0.45 μm. Aminoguanidine (Tokyo Kasei Kogyo Co.) was added to the fluid at a concentration of 0, 10, 50, or 250 mM to prepare a sample solution. An aliquot (1 ml) of the sample solution was added into a plastic tube with a screw cap, and the tube was incubated at 37° C. for 15 hours. The sample solutions were stored at −30° C. prior to the incubation.
Each of 400-μl aliquots of sample solutions was mixed with a 400-μl solution of 0.5 N hydrochloric acid containing 1.5 mM 2,4-DNPH (Wako Pure Chemical Industries, Ltd.), and then, the mixture was stirred at room temperature for 30 minutes to react the carbonyl compound with 2,4-DNPH. […] The aqueous layer was recovered and the absorbance thereof was measured at 360 nm in a spectrophotometric microplate reader (Nippon Molecular Devices Co.; SPECTRAmax250).
Aqueous solutions of various glucose concentrations were prepared and the amounts of carbonyl compounds derived from glucose were measured by the same method as described in (i); a calibration curve of glucose concentration vs. concentration of carbonyl compound was prepared based on this experiment.
Respective glucose concentrations of the samples were determined by using a glucose assay kit (Wako Pure Chemical Industries, Ltd.; Glucose CII-Test Wako). […]

[7] = subcutaneously administered, mouse; cited from earlier work
[8] = trapping of 3-deoxyglucosone by guanidine, aminoguanidine and biguanide agents; conditions: 0.1 M phosphate buffer pH 7.4, 37° C., agent 50 μl of 30 mM
Procedure: as §1

[9] = generation of pentosidine on incubation of peritoneal dialysis effluent; design: species or system human; conditions: peritoneal dialysis effluent, 0, 1, 10, 100 mM, 37° C.
Procedure: An effluent from a peritoneal-dialysis patient, which had been kept overnight, was centrifuged, and the resulting supernatant was sterilized by filtration (pore size; 0.45 μm). Aminoguanidine (Tokyo Kasei Kogyo Co.) was added to the fluid at a final concentration of 0, 1, 10, or 100 mM. The mixture was incubated at 37° C. The incubation period was […] when assaying pentosidine, and 2 weeks when assaying protein carbonyl. The quantitative assay for pentosidine was performed using HPLC (SHIMADZU Co.; LC-10A) after the hydrolysis of proteins in 6 N HCl at 110° C. (T. Miyata et al., 1996, J. Am. Soc. Nephrol, 7:1198-1206; T. Miyata et al., 1996, Proc. Natl. Acad. Aci. USA, 93:2353-2358). The quantitative determination of protein carbonyl was carried out by measuring the absorbance (Nippon Molecular Devices Co.; SPECTRAmax 250) of hydrazone generated by the reaction of a carbonyl group after incubation with 2,4-dinitrophenylhydrazine (2,4-DNPH; Wako Pure Chemical Industries, Ltd.) (Levine, R. L. et al., Methods Enzymol., 233, 346-357 (1994)).

VEGF mRNA [10] = assay: VEGF mRNA expression and histology of peritoneal tissue of rats given daily intraperitoneal injections; assay type: in vivo, rat; conditions: daily intraperitoneal injection for 10 days
Procedure: To further assess the biological effects of methylglyoxal on VEGF mRNA expression in the peritoneum in vivo, rats were given various amounts of methylglyoxal into their peritoneal cavity for 10 days. Six-week-old male CD (SD) IGS rats were given a daily intraperitoneal injection of 50 ml/kg of a saline solution containing various concentrations of methylglyoxal for 10 days. Peritoneum was isolated from the parietal walls and investigated for VEGF mRNA expression. Experiments were performed as the above-mentioned in vitro experiments for rat mesothelial cells. However, mRNA was extracted from peritoneal tissues with ISOGEN (Nippon Gene, Tokyo, Japan). In addition, PCR amplification was performed for 28 cycles for VEGF mRNA and for 16 cycles for G3PDH mRNA.

VEGF mRNA [11] = assay: VEGF mRNA expression in human endothelial cells (RT-PCR); assay type: cell-based; conditions: 0 to 400 μM
Procedure: VEGF mRNA expression was then assessed in endothelial cells cultured in the presence of various concentrations (0 to 400 μM) of methylglyoxal. Experiments were performed as those for rat mesothelial cells. However, primers used for human VEGF amplification were 5′-[…]-3′ (SEQ ID NO: 5) and 5′-[…]-3′ (SEQ ID NO: 6). The amplified fragment was 271 bp long. The same primers were used for human and rat G3PDH amplifications.

VEGF protein = VEGF protein release into culture supernatant (ELISA); assay type: cell-based; conditions: human microvascular endothelial cells, 0, 200, 400 μM, 24 hours
Procedure: The release of VEGF protein into the culture supernatant was measured by ELISA for […] cultured for 24 hours in the presence of various concentrations of methylglyoxal. Human microvascular endothelial cells were purchased from Kurabo (Osaka, Japan) and cultured in VEGF-depleted EGM-2 medium (Takara, Tokyo, Japan). The cells were incubated with methylglyoxal in the same manner as rat peritoneum mesothelial cells. The VEGF protein in the culture supernatant prepared in duplicate was quantified by enzyme-linked immunosorbent assay (ELISA) using a kit (Quantikine: R&D Systems, Minneapolis, USA) according to the attached manual. The experiment was repeated three times. The results were statistically analyzed as described above.

[12] = trapping of methylglyoxal by albumin; conditions: 0.1 M phosphate buffer pH 7.4, 37° C., 50 μl of 100 mg/ml
Procedure: (§3) A solution (50 μl) consisting of glyoxal, methylglyoxal, and 3-deoxyglucosone (1 mM each) was further mixed with 400 μl of 0.1 M phosphate buffer (pH 7.4), 50 μl of 100 mg/ml bovine serum albumin solution, and the resulting mixture was incubated at 37° C. After the incubation, glyoxal, methylglyoxal, and 3-deoxyglucosone were converted to quinoxaline derivatives by using o-phenylenediamine, and then the respective concentrations were determined by high performance liquid chromatography.

[13] = trapping of glyoxal by albumin; conditions: 0.1 M phosphate buffer pH 7.4, 37° C., 50 μl of 100 mg/ml
Procedure: as §3

Molecule: O=CC(=O)C[C@H](O)[C@H](O)CO [3-deoxyglucosone]
- VEGF mRNA expression (VEGF mRNA [1]; 0 to 400 μM): neither glyoxal nor 3-deoxyglucosone modified VEGF expression

Molecule: N=C(N)N [Guanidine, guanidine]
- concentration of methylglyoxal [2]: markedly reducing the concentration of methylglyoxal

Molecule: N=C(N)NN [aminoguanidine]
- generation of carbonyl compounds [3]: effectively inhibited the generation of carbonyl compounds in a concentration-dependent manner
- concentration of methylglyoxal [2]: markedly reducing the concentration of methylglyoxal; also recorded: drastically reduced the concentration of methylglyoxal
- half-lethal dose [4]: 1258 mg/kg
- generation of 5-HMF ([5]; peritoneal dialysate acidic pH (pH 5.3)): effectively inhibited the generation of 5-HMF in a concentration-dependent manner
- generation of 5-HMF ([5]; peritoneal dialysate neutral pH (pH 7.0)): effectively inhibited the generation of 5-HMF in a concentration-dependent manner
- amounts of carbonyl compounds other than glucose [6]: decreased
- half-lethal dose [7]: 963 mg/kg
- concentration of 3-deoxyglucosone [8]: markedly reducing the concentration of 3-deoxyglucosone
- generation of pentosidine [9]: inhibit the generation of pentosidine in a concentration-dependent manner

Molecule: O=CC=O [glyoxal]
- VEGF mRNA expression (VEGF mRNA [1]; 0 to 400 μM): neither glyoxal nor 3-deoxyglucosone modified VEGF expression

- peritoneal tissue on optical microscopy (VEGF mRNA [10]): unaffected
Molecule: CC(=O)C=O [methylglyoxal]
- VEGF mRNA expression in parietal peritoneum (VEGF mRNA [10]; P<0.05): increased significantly
- VEGF mRNA expression (VEGF mRNA [11]): rose in a dose-dependent manner
- VEGF protein released into culture supernatant (VEGF protein): dose-dependent increase of VEGF
- VEGF mRNA expression (VEGF mRNA [1]; 400 μM, P<0.0005): stimulated VEGF mRNA expression

Molecule: Bovine serum albumin: bovine serum albumin solution, 100 mg/ml; SH group-containing protein
- concentration of methylglyoxal [12]: markedly reducing the concentrations of glyoxal and methylglyoxal
- concentration of glyoxal [13]: markedly reducing the concentrations of glyoxal and methylglyoxal
